# Results: patent publication US11753446B2, “Beta-hairpin peptidomimetics” (POLYPHOR AG, priority 2014, dated 2023)
# Where a SMILES comes first, the peptide text is derived from it. Bridges are numbered along the chain shown (N, C = ends). [ ]: non-standard residue; d: D form. Tle = CC(C)(C)[C@H](N)C(=O)O; dDab = NCC[C@@H](N)C(=O)O; Dab = NCC[C@H](N)C(=O)O; Dap = NC[C@H](N)C(=O)O
# Key:
# [1] = test system: human red blood cells (hRBC); assay: Hemolysis: hemolytic activity at 100 μg/mL, 1 h at 37° C.; settings: red cells of human, 1 h, 100
# How it was run: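 Peptides at 100 μg/mL incubated with washed 20% (v/v) human erythrocytes (~0.9×10^9 cells/mL) for 1 h at 37 °C with shaking. Released hemoglobin read at OD 540 nm in supernatant; 0% and 100% lysis from PBS/0.001% acetic acid and 2.5% Triton X-100.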
# [2] = test system: Escherichia coli ATCC 25922; assay type: cell-based; settings: ATCC 25922
# How it was run: (§1)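 Peptide MICs were determined by NCCLS broth microdilution in cation-adjusted Mueller-Hinton II broth. Inoculum was about 10^6 CFU/mL, matched to 0.5 McFarland, with peptides in two-fold serial dilutions. The broth contained Polysorbate 80 at 0.002% final concentration.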
# [3] = test system: Acinetobacter baumannii DSM 30008; assay type: cell-based; settings: DSM 30008
# How it was run: as §1
# [4] = test system: Klebsiella pneumoniae ATCC 13883; assay type: cell-based; settings: ATCC 13883
# How it was run: as §1
Structure (SMILES),Hemolysis at 100 μg/mL [1] [%],Escherichia coli ATCC 25922 MIC [2] [µg/mL],Acinetobacter baumannii DSM 30008 MIC [3] [µg/mL],Klebsiella pneumoniae ATCC 13883 MIC [4] [µg/mL]
"CC(C)C[C@@H]1NC(=O)[C@H](CCCNC(=N)N)NC(=O)[C@@H](CCN)NC(=O)[C@H](C(C)C)NC(=O)[C@@H]2CSSC[C@H](NC1=O)C(=O)N[C@@H](Cc1ccc(O)cc1)C(=O)N[C@@H](CC(N)=O)C(=O)N[C@@H](CCCN)C(=O)N[C@@H](CCN)C(=O)N[C@@H](CCN)C(=O)N[C@@H](Cc1c[nH]c3ccccc13)C(=O)N[C@@H](CO)C(=O)N[C@@H](Cc1ccc(O)cc1)C(=O)N2 [Example 55, cyclo(-Leu-Cys-Tyr-Asn-Orn-Dab-Dab-Trp-Ser-Tyr-Cys-Val-^DDab-Arg-)] (HELM PEPTIDE1{C.V.[NCC[C@@H](N[*:1])C(=O)[*:2]].R.L.C.Y.N.[Orn].[Dab].[Dab].W.S.Y}$PEPTIDE1,PEPTIDE1,1:R3-6:R3|PEPTIDE1,PEPTIDE1,1:R1-14:R2$$$V2.0)",0,1,1.25,1
"CC(C)C[C@@H]1NC(=O)[C@H](CCCNC(=N)N)NC(=O)[C@H]2CCCN2C(=O)[C@H](C(C)C)NC(=O)[C@H]([C@@H](C)O)NC(=O)[C@H](C(C)C)NC(=O)[C@@H]2CSSC[C@H](NC(=O)[C@H](Cc3ccc(O)cc3)NC(=O)[C@H]([C@@H](C)O)NC1=O)C(=O)N[C@@H](CCN)C(=O)N[C@H](CCN)C(=O)N[C@@H](CCN)C(=O)N[C@@H](Cc1c[nH]c3ccccc13)C(=O)N2 [Example 36, cyclo(-Leu-Thr-Tyr-Cys-Dab-^DDab-Dab-Trp-Cys-Val-Thr-Val-^DPro-Arg-)] (HELM PEPTIDE1{C.[Dab].[NCC[C@@H](N[*:1])C(=O)[*:2]].[Dab].W.C.V.T.V.[dP].R.L.T.Y}$PEPTIDE1,PEPTIDE1,1:R3-6:R3|PEPTIDE1,PEPTIDE1,1:R1-14:R2$$$V2.0)",2,4,2,2
"CC(C)C[C@@H]1NC(=O)[C@@H]2CSSC[C@H](NC(=O)[C@H](C(C)C)NC(=O)[C@H](CCCNC(=N)N)NC(=O)[C@@H](CCN)NC1=O)C(=O)N[C@@H](Cc1ccc(O)cc1)C(=O)N[C@@H](CC(N)=O)C(=O)N[C@@H](CCCN)C(=O)N[C@H](CCN)C(=O)N[C@@H](CCN)C(=O)N[C@@H](Cc1c[nH]c3ccccc13)C(=O)N[C@@H](CO)C(=O)N[C@@H](Cc1ccc(O)cc1)C(=O)N2 [Example 69, cyclo(-Val-Cys-Tyr-Asn-Orn-^DDab-Dab-Trp-Ser-Tyr-Cys-Leu-^DDab-Arg-)] (HELM PEPTIDE1{C.L.[NCC[C@@H](N[*:1])C(=O)[*:2]].R.V.C.Y.N.[Orn].[NCC[C@@H](N[*:1])C(=O)[*:2]].[Dab].W.S.Y}$PEPTIDE1,PEPTIDE1,1:R3-6:R3|PEPTIDE1,PEPTIDE1,1:R1-14:R2$$$V2.0)",1,1,1,1
"CC(C)C[C@@H]1NC(=O)[C@H](CCCNC(=N)N)NC(=O)[C@@H](CCCNC(=N)N)NC(=O)[C@H](C(C)C)NC(=O)[C@@H]2CSSC[C@H](NC1=O)C(=O)N[C@@H](Cc1ccc(O)cc1)C(=O)N[C@@H](CC(N)=O)C(=O)N[C@@H](CCCN)C(=O)N[C@H](CCN)C(=O)N[C@@H](CCN)C(=O)N[C@@H](Cc1c[nH]c3ccccc13)C(=O)N[C@@H](CO)C(=O)N[C@@H](Cc1ccc(O)cc1)C(=O)N2 [Example 66, cyclo(-Leu-Cys-Tyr-Asn-Orn-^DDab-Dab-Trp-Ser-Tyr-Cys-Val-^DArg-Arg-)] (HELM PEPTIDE1{C.V.[dR].R.L.C.Y.N.[Orn].[NCC[C@@H](N[*:1])C(=O)[*:2]].[Dab].W.S.Y}$PEPTIDE1,PEPTIDE1,1:R3-6:R3|PEPTIDE1,PEPTIDE1,1:R1-14:R2$$$V2.0)",2,1,1.25,0.5
"CC(C)C[C@@H]1NC(=O)[C@H](CCN)NC(=O)[C@H]2CCCN2C(=O)[C@H](C(C)C)NC(=O)[C@H]([C@@H](C)O)NC(=O)[C@H](C(C)C)NC(=O)[C@@H]2CSSC[C@H](NC(=O)[C@H](Cc3ccc(O)cc3)NC(=O)[C@H]([C@@H](C)O)NC1=O)C(=O)N[C@@H](CCN)C(=O)N[C@H](CCN)C(=O)N[C@@H](CCN)C(=O)N[C@@H](Cc1c[nH]c3ccccc13)C(=O)N2 [Example 37, cyclo(-Leu-Thr-Tyr-Cys-Dab-^DDab-Dab-Trp-Cys-Val-Thr-Val-^DPro-Dab-)] (HELM PEPTIDE1{C.[Dab].[NCC[C@@H](N[*:1])C(=O)[*:2]].[Dab].W.C.V.T.V.[dP].[Dab].L.T.Y}$PEPTIDE1,PEPTIDE1,1:R3-6:R3|PEPTIDE1,PEPTIDE1,1:R1-14:R2$$$V2.0)",2,4,2,2
"CC(C)[C@@H]1NC(=O)[C@H](Cc2ccc(O)cc2)NC(=O)[C@@H](C)NC(=O)[C@H](CO)NC(=O)[C@@H]2CC(=O)NCC[C@H](NC1=O)C(=O)N[C@@H](Cc1ccc(O)cc1)C(=O)N[C@@H](CCN)C(=O)N[C@@H](CN)C(=O)N[C@H](CCN)C(=O)N[C@@H](CCN)C(=O)N[C@@H](Cc1c[nH]c3ccccc13)C(=O)N[C@@H](CN)C(=O)N[C@@H](C(C)(C)C)C(=O)N2 [Example 31, cyclo(-Val-Dab-Tyr-Dab-Dap-^DDab-Dab-Trp-Dap-tBuGly-Asp-Ser-^DAla-Tyr-)] (cyclo(DS[dA]YV[Dab]Y[Dab][Dap][dDab][Dab]W[Dap][Tle]); lactam 1-6)",1,1,4,1
"CC(C)C[C@@H]1NC(=O)[C@H](CCCNC(=N)N)NC(=O)[C@H]2CCCN2C(=O)[C@H](C(C)C)NC(=O)[C@@H]2CSSC[C@H](NC1=O)C(=O)N[C@@H](Cc1ccc(O)cc1)C(=O)N[C@@H](CC(N)=O)C(=O)N[C@@H](CCCN)C(=O)N[C@H](CCN)C(=O)N[C@@H](CCN)C(=O)N[C@@H](Cc1c[nH]c3ccccc13)C(=O)N[C@@H](CCN)C(=O)N[C@@H](Cc1ccc(O)cc1)C(=O)N2 [Example 78, cyclo(-Leu-Cys-Tyr-Asn-Orn-^DDab-Dab-Trp-Dab-Tyr-Cys-Val-^DPro-Arg-)] (HELM PEPTIDE1{C.V.[dP].R.L.C.Y.N.[Orn].[NCC[C@@H](N[*:1])C(=O)[*:2]].[Dab].W.[Dab].Y}$PEPTIDE1,PEPTIDE1,1:R3-6:R3|PEPTIDE1,PEPTIDE1,1:R1-14:R2$$$V2.0)",1,1.5,1.5,1
"CC(C)C[C@@H]1NC(=O)[C@H](CCCNC(=N)N)NC(=O)[C@@H](CCN)NC(=O)[C@H](C(C)C)NC(=O)[C@@H]2CSSC[C@H](NC1=O)C(=O)N[C@@H](C(C)C)C(=O)N[C@@H](C(C)C)C(=O)N[C@@H](CCCN)C(=O)N[C@H](CCN)C(=O)N[C@@H](CCN)C(=O)N[C@@H](Cc1c[nH]c3ccccc13)C(=O)N[C@@H](Cc1ccc(O)cc1)C(=O)N[C@@H](Cc1ccc(O)cc1)C(=O)N2 [Example 20, cyclo(-Leu-Cys-Val-Val-Orn-^DDab-Dab-Trp-Tyr-Tyr-Cys-Val-^DDab-Arg-)] (HELM PEPTIDE1{C.V.V.[Orn].[NCC[C@@H](N[*:1])C(=O)[*:2]].[Dab].W.Y.Y.C.V.[NCC[C@@H](N[*:1])C(=O)[*:2]].R.L}$PEPTIDE1,PEPTIDE1,1:R3-10:R3|PEPTIDE1,PEPTIDE1,1:R1-14:R2$$$V2.0)",7,1,0.25,1
"CC(C)[C@@H]1NC(=O)[C@@H]2CCCN2C(=O)[C@@H](C)NC(=O)[C@H](CO)NC(=O)[C@@H]2CC(=O)NCC[C@H](NC1=O)C(=O)N[C@@H](Cc1ccc(O)cc1)C(=O)N[C@@H](CCN)C(=O)N[C@@H](CN)C(=O)N[C@H](CCN)C(=O)N[C@@H](CCN)C(=O)N[C@@H](Cc1c[nH]c3ccccc13)C(=O)N[C@@H](CCN)C(=O)N[C@@H](C(C)(C)C)C(=O)N2 [Example 27, cyclo(-Val-Dab-Tyr-Dab-Dap-^DDab-Dab-Trp-Dab-tBuGly-Asp-Ser-^DAla-Pro-)] (cyclo(DS[dA]PV[Dab]Y[Dab][Dap][dDab][Dab]W[Dab][Tle]); lactam 1-6)",2,0.5,1,0.5
"CC[C@H](C)[C@@H]1NC(=O)[C@H](Cc2ccc(O)cc2)NC(=O)[C@@H](C)NC(=O)[C@H](CO)NC(=O)[C@H](C)NC(=O)[C@H](C(C)(C)C)NC(=O)[C@H](CCN)NC(=O)[C@H](Cc2c[nH]c3ccccc23)NC(=O)[C@H](CCN)NC(=O)[C@@H](CCN)NC(=O)[C@H](CCCN)NC(=O)[C@H](CCN)NC(=O)[C@H](Cc2ccc(O)cc2)NC(=O)[C@H]([C@@H](C)O)NC1=O [Example 49, cyclo(-Ile-Thr-Tyr-Dab-Orn-^DDab-Dab-Trp-Dab-tBuGly-Ala-Ser-^DAla-Tyr-)] (HELM PEPTIDE1{A.S.[dA].Y.I.T.Y.[Dab].[Orn].[NCC[C@@H](N[*:1])C(=O)[*:2]].[Dab].W.[Dab].[CC(C)(C)[C@H](N[*:1])C(=O)[*:2]]}$PEPTIDE1,PEPTIDE1,1:R1-14:R2$$$V2.0)",2,2,4,2
